Test results taken from article PMC3399817 (PLoS ONE, 2012).

Tests used:
[1] = system: panel of colorectal cancer cell lines; experiment: Cell viability (Syto60) in a panel of colorectal cancer cell lines; type: cell-based; settings: 72 hours, 3 cell lines expressing wild-type K-RAS
Description: (§1) Cell cycle analysis was performed via FACS-based propidium iodide quantification, using standard methods. To measure cell viability, cells were grown in 96-well plates in the presence or absence of drug for 72 hours, fixed with 4% paraformaldehyde, and then stained with Syto60 (Invitrogen). Plates were imaged and quantified using the LiCor Odyssey system (LiCor).
Relative cell viability was normalized to an untreated control for each cell line. Error bars represent SEM for 3 independent experiments. […] (PDF) Click here for additional data file.

IRAK4 = target: T1, IRAK4 (Homo sapiens, UniProt Q9NWZ3); experiment: KINOMEscan; type: binding; settings: IRAK4, 1 uM
T1 construct: purchased Ambit KINOMEscan (DiscoverX)
Outline: (§2)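 A binding-competition profile was run with every compound fixed at 1 μM; hits were kinases showing inhibited substrate binding.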

TRKA = target: T2, TRKA (Homo sapiens, UniProt P04629); experiment: KINOMEscan; type: binding; settings: 1 uM
T2 construct: purchased Ambit KINOMEscan (DiscoverX)
Outline: as §2

PFPK5(P.falciparum) = target: T3, PFPK5(P.falciparum) (Plasmodium falciparum, UniProt P61075); experiment: KINOMEscan; type: binding; settings: 1 uM
T3 construct: purchased Ambit KINOMEscan (DiscoverX)
Outline: as §2

[2] = target: T4, RPS6KA3(Kin.Dom.1-N-terminal) (Homo sapiens, UniProt P51812); experiment: KINOMEscan; type: binding; settings: 1 uM
T4 construct: RPS6KA3(Kin.Dom.1-N-terminal); purchased Ambit KINOMEscan (DiscoverX)
Outline: as §2

CDK4-cyclinD3 = target: T5, CDK4-cyclinD3 (Homo sapiens, UniProt P11802); experiment: KINOMEscan; type: binding; settings: CDK4-cyclinD3, 1 uM
T5 construct: purchased Ambit KINOMEscan (DiscoverX)
Outline: as §2

RET(V804L) = target: T6, RET(V804L) (Homo sapiens, UniProt P07949, V804L); experiment: KINOMEscan; type: binding; settings: 1 uM
T6 construct: purchased Ambit KINOMEscan (DiscoverX)
Outline: as §2

NEK11 = target: T7, NEK11 (Homo sapiens, UniProt Q8NG66); experiment: KINOMEscan; type: binding; settings: NEK11, 1 uM
T7 construct: purchased Ambit KINOMEscan (DiscoverX)
Outline: as §2

PRKCI = target: T8, PRKCI (Homo sapiens, UniProt P41743); experiment: KINOMEscan; type: binding; settings: 1 uM
T8 construct: purchased Ambit KINOMEscan (DiscoverX)
Outline: as §2

p38-delta = target: T9, p38-delta (Homo sapiens, UniProt O15264); experiment: KINOMEscan; type: binding; settings: 1 uM
T9 construct: purchased Ambit KINOMEscan (DiscoverX)
Outline: as §2

[3] = target: T10, RPS6KA6(Kin.Dom.1-N-terminal) (Homo sapiens, UniProt Q9UK32); experiment: KINOMEscan; type: binding; settings: 1 uM
T10 construct: RPS6KA6(Kin.Dom.1-N-terminal); purchased Ambit KINOMEscan (DiscoverX)
Outline: as §2

CAMK2G = target: T11, CAMK2G (Homo sapiens, UniProt Q13555); experiment: KINOMEscan; type: binding; settings: 1 uM
T11 construct: purchased Ambit KINOMEscan (DiscoverX)
Outline: as §2

TLK2 = target: T12, TLK2 (Homo sapiens, UniProt Q86UE8); experiment: KINOMEscan; type: binding; settings: TLK2, 1 uM
T12 construct: purchased Ambit KINOMEscan (DiscoverX)
Outline: as §2

RET(M918T) = target: T13, RET(M918T) (Homo sapiens, UniProt P07949, M918T); experiment: KINOMEscan; type: binding; settings: 1 uM
T13 construct: purchased Ambit KINOMEscan (DiscoverX)
Outline: as §2

[4] = target: T14, EGFR(L747-E749del, A750P) (Homo sapiens, UniProt P00533, A750P/DEL747-749); experiment: KINOMEscan; type: binding; settings: 1 uM
T14 construct: purchased Ambit KINOMEscan (DiscoverX)
Outline: as §2

YANK1 = target: T15, YANK1 (Homo sapiens, UniProt Q8WU08); experiment: KINOMEscan; type: binding; settings: YANK1, 1 uM
T15 construct: purchased Ambit KINOMEscan (DiscoverX)
Outline: as §2

ZAK = target: T16, ZAK (Homo sapiens, UniProt Q9NYL2); experiment: KINOMEscan; type: binding; settings: 1 uM
T16 construct: purchased Ambit KINOMEscan (DiscoverX)
Outline: as §2

S6K1 = target: T17, S6K1 (Homo sapiens, UniProt P23443); experiment: KINOMEscan; type: binding; settings: S6K1, 1 uM
T17 construct: purchased Ambit KINOMEscan (DiscoverX)
Outline: as §2

CDK5 = target: T18, CDK5 (Homo sapiens, UniProt Q00535); experiment: KINOMEscan; type: binding; settings: CDK5, 1 uM
T18 construct: purchased Ambit KINOMEscan (DiscoverX)
Outline: as §2

LRRK2 = target: T19, LRRK2 (Homo sapiens, UniProt Q5S007); experiment: KINOMEscan; type: binding; settings: LRRK2, 1 uM
T19 construct: purchased Ambit KINOMEscan (DiscoverX)
Outline: as §2

CDC2L5 = CDC2L5 (Homo sapiens, UniProt Q14004); settings: CDC2L5, 1 uM
Description: (§3) First, we used Ambit's KINOMEscan™ technology to identify those kinases that are inhibited for substrate binding by the compounds, all assayed at 1 μM. Second, we used Invitrogen's SelectScreen® Biochemical Kinase Profiling Service to determine the in vitro IC50s for the compounds against specific kinases.

PKNB(M.tuberculosis) = PKNB(M.tuberculosis) (Mycobacterium tuberculosis, UniProt P9WI81); settings: 1 uM
Description: as §3

DLD-1 (K-RAS^G13D/+) = experiment: Cell cycle analysis (propidium iodide FACS); type: cell-based; settings: DLD-1 cells
Description: as §1

[5] = target: T20, RPS6KA2(Kin.Dom.1-N-terminal) (Homo sapiens, UniProt Q15349); experiment: KINOMEscan; type: binding; settings: 1 uM
T20 construct: RPS6KA2(Kin.Dom.1-N-terminal); purchased Ambit KINOMEscan (DiscoverX)
Outline: as §2

[6] = target: T21, RPS6KA2(Kin.Dom.2-C-terminal) (Homo sapiens, UniProt Q15349); experiment: KINOMEscan; type: binding; settings: 1 uM
T21 construct: RPS6KA2(Kin.Dom.2-C-terminal); purchased Ambit KINOMEscan (DiscoverX)
Outline: as §2

[7] = system: antigen-induced airway inflammation; set-up: method as in PMID 12766258; settings: rats ref 14; cited from earlier work
[8] = system: phospho-MEK1 (Ser217/Ser221) and phospho-ERK1/2 (Thr202/Tyr204, Thr185/Tyr187); experiment: Bio-Plex phospho-MEK1 and phospho-ERK1/2; type: cell-based; settings: 45 minute exposure, 1 µM, K-RAS wild-type and mutant cells
Description: The Bio-Plex assay system was used to measure signaling in drug-treated cells. Briefly, cells were incubated in the presence of drug for various amounts of time and then lysed in Bio-Rad cell lysis buffer (Bio-Rad). Protein quantification was performed using BCA assay (Pierce) and 5 µg of protein from each sample was used for Bio-Plex analysis. Phospho-signaling assays were performed using available phospho-signaling assay kits and quantified on a Bio-Plex 200 system (Bio-Rad): p-Iκβα (Ser32/Ser36), p-JNK (Thr183/Tyr185), p-MEK1 (Ser217/Ser221), p-ERK1/2 (Thr202/Tyr204, Thr185/Tyr187), p-p90RSK (Thr359/Ser363), p-p38 (Thr180/Tyr182), p-c-JUN (Ser63), p-ATF2 (Thr71), p-AKT (Ser473), p-S6 (Ser235/Ser236), p-STAT3 (Ser727), p-STAT3 (Tyr705), and p-GSK3α/β (Ser21/Ser9). Bio-Plex assay for total MEK1 was also performed as a loading control.

T5 sequence (P11802 whole entry): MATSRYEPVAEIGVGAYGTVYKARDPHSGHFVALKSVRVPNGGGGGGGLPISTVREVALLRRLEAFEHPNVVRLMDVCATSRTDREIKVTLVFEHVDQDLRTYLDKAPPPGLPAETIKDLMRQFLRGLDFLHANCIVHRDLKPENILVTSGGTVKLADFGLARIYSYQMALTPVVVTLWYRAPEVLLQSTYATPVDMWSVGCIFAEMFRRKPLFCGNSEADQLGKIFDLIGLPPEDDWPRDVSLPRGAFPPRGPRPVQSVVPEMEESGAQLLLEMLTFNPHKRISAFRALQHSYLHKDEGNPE
T5 sequence (P30281 whole entry partner): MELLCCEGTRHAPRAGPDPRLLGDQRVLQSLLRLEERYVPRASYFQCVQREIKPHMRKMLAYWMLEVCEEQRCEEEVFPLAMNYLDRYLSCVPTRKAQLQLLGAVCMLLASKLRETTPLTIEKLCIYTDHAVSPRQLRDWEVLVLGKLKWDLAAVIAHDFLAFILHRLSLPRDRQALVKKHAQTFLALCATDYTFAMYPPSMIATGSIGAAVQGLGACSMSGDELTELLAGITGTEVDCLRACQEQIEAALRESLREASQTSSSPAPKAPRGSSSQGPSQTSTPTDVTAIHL
T1 sequence (Q9NWZ3 whole entry): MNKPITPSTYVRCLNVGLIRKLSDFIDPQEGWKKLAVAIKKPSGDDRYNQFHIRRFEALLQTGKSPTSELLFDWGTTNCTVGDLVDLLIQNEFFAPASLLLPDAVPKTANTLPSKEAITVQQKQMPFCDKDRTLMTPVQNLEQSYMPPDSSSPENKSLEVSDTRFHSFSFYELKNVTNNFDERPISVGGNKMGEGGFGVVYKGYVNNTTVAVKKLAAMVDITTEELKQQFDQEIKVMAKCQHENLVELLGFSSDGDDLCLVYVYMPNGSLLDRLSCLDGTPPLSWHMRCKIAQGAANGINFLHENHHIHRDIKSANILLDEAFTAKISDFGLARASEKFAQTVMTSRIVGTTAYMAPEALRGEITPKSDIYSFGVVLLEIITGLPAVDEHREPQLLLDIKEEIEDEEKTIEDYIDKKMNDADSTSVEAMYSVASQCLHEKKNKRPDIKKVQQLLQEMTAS
T11 sequence (Q13555 whole entry): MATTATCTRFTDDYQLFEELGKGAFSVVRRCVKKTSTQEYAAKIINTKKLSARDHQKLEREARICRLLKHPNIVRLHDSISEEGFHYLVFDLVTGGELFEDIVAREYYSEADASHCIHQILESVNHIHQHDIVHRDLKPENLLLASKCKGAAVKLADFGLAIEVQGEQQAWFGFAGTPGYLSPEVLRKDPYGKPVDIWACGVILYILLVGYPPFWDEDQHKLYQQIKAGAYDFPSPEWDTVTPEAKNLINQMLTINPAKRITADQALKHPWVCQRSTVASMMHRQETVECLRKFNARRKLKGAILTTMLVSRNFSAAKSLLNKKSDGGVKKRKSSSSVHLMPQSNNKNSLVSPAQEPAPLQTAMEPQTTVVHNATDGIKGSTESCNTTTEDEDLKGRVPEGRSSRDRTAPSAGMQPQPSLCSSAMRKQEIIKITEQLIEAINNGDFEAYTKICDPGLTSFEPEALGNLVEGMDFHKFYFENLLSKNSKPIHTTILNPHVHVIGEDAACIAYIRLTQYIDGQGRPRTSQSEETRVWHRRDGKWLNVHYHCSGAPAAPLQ
T15 sequence (Q8WU08 whole entry): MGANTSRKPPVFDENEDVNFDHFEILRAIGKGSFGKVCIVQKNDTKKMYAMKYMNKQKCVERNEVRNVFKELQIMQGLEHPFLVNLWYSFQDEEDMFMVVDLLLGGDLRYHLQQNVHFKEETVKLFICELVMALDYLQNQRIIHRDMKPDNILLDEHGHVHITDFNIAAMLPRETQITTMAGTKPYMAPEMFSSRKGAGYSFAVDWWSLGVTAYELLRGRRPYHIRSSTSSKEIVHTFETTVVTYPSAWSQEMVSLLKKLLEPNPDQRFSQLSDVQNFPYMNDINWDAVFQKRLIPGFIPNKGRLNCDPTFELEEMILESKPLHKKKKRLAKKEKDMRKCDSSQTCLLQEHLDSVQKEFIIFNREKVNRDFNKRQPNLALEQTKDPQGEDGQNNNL
T19 sequence (Q5S007 whole entry): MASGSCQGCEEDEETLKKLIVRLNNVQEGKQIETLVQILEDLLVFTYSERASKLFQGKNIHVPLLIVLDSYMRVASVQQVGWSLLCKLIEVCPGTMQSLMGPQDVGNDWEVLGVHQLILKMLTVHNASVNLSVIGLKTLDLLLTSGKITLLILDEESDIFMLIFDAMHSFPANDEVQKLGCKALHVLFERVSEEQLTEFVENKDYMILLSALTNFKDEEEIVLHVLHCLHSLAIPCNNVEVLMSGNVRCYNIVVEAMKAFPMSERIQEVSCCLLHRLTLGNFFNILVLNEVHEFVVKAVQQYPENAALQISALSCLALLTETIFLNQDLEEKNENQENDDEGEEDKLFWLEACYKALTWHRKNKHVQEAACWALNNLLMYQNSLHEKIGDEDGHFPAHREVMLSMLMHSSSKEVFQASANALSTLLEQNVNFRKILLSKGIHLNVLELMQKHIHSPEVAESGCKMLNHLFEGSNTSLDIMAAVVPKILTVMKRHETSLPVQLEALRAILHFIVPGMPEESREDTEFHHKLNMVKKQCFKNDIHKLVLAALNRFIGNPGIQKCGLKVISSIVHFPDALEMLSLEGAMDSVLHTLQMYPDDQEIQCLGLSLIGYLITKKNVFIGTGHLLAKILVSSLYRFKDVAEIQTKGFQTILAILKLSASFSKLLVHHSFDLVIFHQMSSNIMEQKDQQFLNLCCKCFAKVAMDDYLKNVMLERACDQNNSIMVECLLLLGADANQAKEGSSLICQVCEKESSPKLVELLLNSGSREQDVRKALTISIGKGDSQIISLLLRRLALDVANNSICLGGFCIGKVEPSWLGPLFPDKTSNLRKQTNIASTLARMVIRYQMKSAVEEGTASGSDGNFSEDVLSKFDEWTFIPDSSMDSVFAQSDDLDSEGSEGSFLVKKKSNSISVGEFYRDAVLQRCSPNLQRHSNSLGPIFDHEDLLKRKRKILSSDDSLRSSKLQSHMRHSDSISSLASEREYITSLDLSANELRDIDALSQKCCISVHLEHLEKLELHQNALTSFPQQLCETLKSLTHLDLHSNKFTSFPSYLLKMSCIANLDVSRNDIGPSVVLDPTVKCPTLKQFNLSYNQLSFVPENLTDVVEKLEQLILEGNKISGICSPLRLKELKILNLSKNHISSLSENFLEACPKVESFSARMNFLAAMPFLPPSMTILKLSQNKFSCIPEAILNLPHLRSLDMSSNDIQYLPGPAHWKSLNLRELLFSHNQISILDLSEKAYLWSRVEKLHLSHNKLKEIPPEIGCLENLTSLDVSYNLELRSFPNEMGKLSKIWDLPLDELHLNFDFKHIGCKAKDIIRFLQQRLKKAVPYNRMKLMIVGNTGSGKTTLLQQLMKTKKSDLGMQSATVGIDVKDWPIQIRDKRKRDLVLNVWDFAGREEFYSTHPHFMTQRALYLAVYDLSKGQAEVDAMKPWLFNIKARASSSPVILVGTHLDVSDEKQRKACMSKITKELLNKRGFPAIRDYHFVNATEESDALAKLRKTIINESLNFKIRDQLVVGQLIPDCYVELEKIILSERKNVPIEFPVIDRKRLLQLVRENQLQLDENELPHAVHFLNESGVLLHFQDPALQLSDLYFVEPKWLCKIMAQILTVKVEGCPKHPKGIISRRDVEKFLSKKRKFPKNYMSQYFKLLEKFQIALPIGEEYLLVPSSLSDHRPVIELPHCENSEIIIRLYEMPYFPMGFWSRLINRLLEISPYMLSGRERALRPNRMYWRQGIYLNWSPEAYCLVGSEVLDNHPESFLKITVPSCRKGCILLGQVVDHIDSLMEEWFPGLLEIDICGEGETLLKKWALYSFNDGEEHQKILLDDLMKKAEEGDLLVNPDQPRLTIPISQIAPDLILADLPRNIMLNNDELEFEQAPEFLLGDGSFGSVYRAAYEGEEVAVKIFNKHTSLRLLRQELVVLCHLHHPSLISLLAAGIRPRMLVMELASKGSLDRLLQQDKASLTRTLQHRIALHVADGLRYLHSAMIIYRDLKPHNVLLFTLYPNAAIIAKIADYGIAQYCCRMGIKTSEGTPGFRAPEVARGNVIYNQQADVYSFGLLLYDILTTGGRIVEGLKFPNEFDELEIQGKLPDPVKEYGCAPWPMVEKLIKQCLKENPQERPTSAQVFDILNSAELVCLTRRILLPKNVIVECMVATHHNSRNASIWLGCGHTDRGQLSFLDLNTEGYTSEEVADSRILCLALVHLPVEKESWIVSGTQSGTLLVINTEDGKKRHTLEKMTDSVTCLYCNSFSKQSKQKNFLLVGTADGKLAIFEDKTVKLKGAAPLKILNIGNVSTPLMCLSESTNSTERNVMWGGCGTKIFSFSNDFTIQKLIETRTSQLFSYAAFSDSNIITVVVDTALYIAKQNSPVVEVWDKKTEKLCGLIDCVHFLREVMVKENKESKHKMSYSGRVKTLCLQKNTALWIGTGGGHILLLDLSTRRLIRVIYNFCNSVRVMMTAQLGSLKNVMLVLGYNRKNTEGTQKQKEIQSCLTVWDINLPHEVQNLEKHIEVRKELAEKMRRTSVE
T10 sequence (Q9UK32 1-400 limits assumed): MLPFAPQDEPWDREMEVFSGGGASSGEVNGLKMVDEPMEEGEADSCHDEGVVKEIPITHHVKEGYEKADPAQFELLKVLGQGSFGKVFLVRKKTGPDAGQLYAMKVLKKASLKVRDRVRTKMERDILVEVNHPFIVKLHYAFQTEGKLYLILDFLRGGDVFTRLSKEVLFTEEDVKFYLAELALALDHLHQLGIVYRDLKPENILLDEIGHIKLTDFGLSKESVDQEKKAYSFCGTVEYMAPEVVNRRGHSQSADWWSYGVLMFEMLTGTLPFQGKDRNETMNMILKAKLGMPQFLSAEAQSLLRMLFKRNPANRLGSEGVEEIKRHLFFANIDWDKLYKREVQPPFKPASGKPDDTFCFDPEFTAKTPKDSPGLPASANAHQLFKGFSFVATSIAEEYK

COc1ccccc1Nc1nc(-c2ccc(OC)c(OC)c2)cc2nccn12 [BAY derivative 6]
cell lines expressing wild-type K-RAS that responded [1]: 0/3
% binding compared to no inhibitor control (IRAK4): 100%
% binding compared to no inhibitor control (TRKA): 98%
% binding compared to no inhibitor control (PFPK5(P.falciparum)): 100%
% binding compared to no inhibitor control [2]: 96%
% binding compared to no inhibitor control (CDK4-cyclinD3): 95%
% binding compared to no inhibitor control (RET(V804L)): 95%
% binding compared to no inhibitor control (NEK11): 84%
% binding compared to no inhibitor control (PRKCI): 100%
% binding compared to no inhibitor control (p38-delta): 100%
% binding compared to no inhibitor control [3]: 70%
% binding compared to no inhibitor control (CAMK2G): 100%
% binding compared to no inhibitor control (TLK2): 100%
% binding compared to no inhibitor control (RET(M918T)): 72%
% binding compared to no inhibitor control [4]: 74%
% binding compared to no inhibitor control (YANK1): 100%
% binding compared to no inhibitor control (ZAK): 92%
% binding compared to no inhibitor control (S6K1): 84%
% binding compared to no inhibitor control (CDK5): 100%
% binding compared to no inhibitor control (LRRK2): 95%
% binding compared to no inhibitor control (CDC2L5): 88%
% binding compared to no inhibitor control (PKNB(M.tuberculosis)): 99%

COc1ccc(-c2cc3nccn3c(Nc3ncccc3C(N)=O)n2)cc1OC.Cl.Cl [BAY61-3606, 2-[7-(3,4-dimethoxyphenyl)-imidazo [1,2-c]pyrimidin-5-ylamino] nicotinamide dihydrochloride, reference compound]
apoptosis (DLD-1 (K-RAS^G13D/+)): nor did it induce apoptosis
cell cycle profile (DLD-1 (K-RAS^G13D/+); propidium iodide): did not alter the cell cycle profile
% binding compared to no inhibitor control [5]: 92%
% binding compared to no inhibitor control [6]: 89%
antigen-induced airway inflammation [7]: suppresses
MEK and ERK phosphorylation [8]: unable to do so
